Reference: PMC5472784, “Pyrazinamide and derivatives block ethylene biosynthesis by inhibiting ACC oxidase” (Nature Communications, 2017)
Where two headings read alike, the source gives them in different places.

Columns and labels:
AtACO2 [1] = biological target: T1, AtACO2 (Arabidopsis thaliana, UniProt Q41931); test: ACO enzymatic activity assay and kinetic analysis (ethylene by GC-FID); type: biochemical
[2] = tested on: ethylene production of Arabidopsis seedlings; test: Measurement of ethylene production of seedlings (GC-FID); type: in vivo, Arabidopsis thaliana; details: for ethylene production in Arabidopsis seedlings: Supplementary Fig. 10
Procedure: Ethylene production was determined as follows: 30 3-day-old etiolated or 5-day-old green seedlings of Col-0, eto1-2 or other mutants were selected randomly and sealed in a 30 ml vial containing 3 ml liquid MS medium supplemented with indicated treatments. The vial was sealed with a rubber stopper for 24 h at 22 °C prior to ethylene sampling. A 250 μl sample of the headspace gas was withdrawn using a gas-tight syringe from each chamber through the septum stopper, and injected into a gas chromatograph (Agilent 6890NGC, Agilent Technologies, USA) that was equipped with a HP-PLOTQ column (40 m × 530 μm × 40 μm) and a flame ionization detector (FID)[44]. Separations were carried out at 60 °C using N2 as the carrier gas. The area of the ethylene peak was integrated with Agilent Chemstation and results were expressed as the average relative ethylene production (%) of each treatment.

[3] = tested on: Arabidopsis PSB-D suspension cultured cells; test: Ethylene production of suspension cultured cells; type: cell-based, Arabidopsis thaliana
[4] = tested on: Arabidopsis etiolated seedlings (Col-0, eto1-2, ctr1-1, ein2-5); test: Ethylene response phenotype of 3-day-old etiolated seedlings (hypocotyl and root length, root hairs, root cells); type: in vivo, Arabidopsis thaliana; details: 3-day-old etiolated eto1-2 seedlings, MS medium with compound (50 μM shown)
AtACO3 = AtACO3 (Arabidopsis thaliana, UniProt O65378); test: ACO enzymatic activity assay, kinetic analysis; type: biochemical; details: varying ACC, 200 μM POA, unit inferred
Procedure: (§1) The activity was performed following previously published protocol. The reaction mixture contains 50 mM MOPS, pH 7.4, 10% glycerol (v/v), 5 mM ascorbic acid, 20 mM NaHCO3, 0.02 mM FeSO4, 1 mM DTT, and different amounts of ACC and PZA/POA as indicated. The reaction was initiated by the addition of 5 μg ACO protein and immediately sealed with a rubber stopper. After incubation at 30 °C for 30 min with shaking, 100 μl of gas product was withdrawn by syringe from the headspace of the vial and injected into the GC-FID. The area of the ethylene peak was integrated with Agilent Chemstation and results were analysed using the program GraphPad Prism (version 5.01; GraphPad Software Inc., San Diego, CA, USA). The initial velocities were plotted against starting ACC concentrations in a double-reciprocal manner and the kinetic parameters were deduced.

AtACO4 = AtACO4 (Arabidopsis thaliana, UniProt Q06588); test: ACO enzymatic activity assay, kinetic analysis; type: biochemical; details: varying ACC, 200 μM POA, unit inferred
Procedure: as §1

AtACO5 = biological target: T2, AtACO5 (Arabidopsis thaliana, UniProt Q0WPW4); test: ACO enzymatic activity assay, kinetic analysis; type: biochemical; details: varying ACC, 200 μM POA, unit inferred
T2 sequence (Q0WPW4 1-307): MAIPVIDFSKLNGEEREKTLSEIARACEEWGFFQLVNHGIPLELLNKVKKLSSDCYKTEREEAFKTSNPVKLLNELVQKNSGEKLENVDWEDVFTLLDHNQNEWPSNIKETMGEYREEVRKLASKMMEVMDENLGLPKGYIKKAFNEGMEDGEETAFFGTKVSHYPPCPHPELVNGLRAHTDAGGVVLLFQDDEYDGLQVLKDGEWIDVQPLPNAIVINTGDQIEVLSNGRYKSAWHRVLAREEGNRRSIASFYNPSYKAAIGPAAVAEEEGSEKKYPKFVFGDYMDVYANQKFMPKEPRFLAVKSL
Procedure: as §1

AtACO1 = biological target: T3, AtACO1 (Arabidopsis thaliana, UniProt Q9ZUN4); test: ACO enzymatic activity assay, kinetic analysis; type: biochemical; details: varying ACC, 200 μM POA, unit inferred
T3 sequence (Q9ZUN4 1-310): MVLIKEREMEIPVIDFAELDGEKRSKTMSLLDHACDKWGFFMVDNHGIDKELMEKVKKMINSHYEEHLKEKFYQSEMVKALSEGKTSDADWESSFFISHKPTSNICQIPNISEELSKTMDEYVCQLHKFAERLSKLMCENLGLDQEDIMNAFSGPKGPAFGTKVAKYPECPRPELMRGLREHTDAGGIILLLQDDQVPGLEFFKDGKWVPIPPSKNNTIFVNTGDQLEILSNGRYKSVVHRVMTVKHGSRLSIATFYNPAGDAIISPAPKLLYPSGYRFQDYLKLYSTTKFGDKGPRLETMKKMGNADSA
Procedure: as §1

[5] = biological target: T4, gibberellin C2 oxidase 2 (GA2OX2) (Arabidopsis thaliana, UniProt Q9XFR9); test: Isothermal titration calorimetry; type: binding; details: ITC
T4 construct: GST; made in house
T4 sequence (Q9XFR9 1-341): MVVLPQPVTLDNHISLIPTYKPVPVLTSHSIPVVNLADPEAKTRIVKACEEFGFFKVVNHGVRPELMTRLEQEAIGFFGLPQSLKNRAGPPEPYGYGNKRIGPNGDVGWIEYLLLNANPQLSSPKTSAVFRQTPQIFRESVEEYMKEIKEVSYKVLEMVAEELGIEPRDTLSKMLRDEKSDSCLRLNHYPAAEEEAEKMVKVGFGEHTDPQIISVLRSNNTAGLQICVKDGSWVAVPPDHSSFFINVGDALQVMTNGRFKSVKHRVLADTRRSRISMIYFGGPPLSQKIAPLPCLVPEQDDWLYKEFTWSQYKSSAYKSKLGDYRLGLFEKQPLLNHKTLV
Procedure: (§2) ITC experiments were performed using a MicroCal iTC200 (GE Healthcare) at 25 °C. Small molecules and proteins were in the same buffer containing 25 mM Bis–Tris (pH 6.0), 150 mM NaCl, 0.1 mM ZnCl2 (or 0.2 mM FeSO4 for POA and AtACO2). The concentration of small molecules in the syringe was 1 mM, and the concentration of proteins in the cell was 90 μM. Data were analysed with a one-site model using Origin 7.0 (OriginLab).

AtACO2 [6] = biological target: T1, AtACO2; test: Isothermal titration calorimetry; type: binding; details: ITC, 25 °C, read-out: dissociation constant (KD), AtACO2
Procedure: as §2

[7] = biological target: T5, anthocyanidin synthase (ANS) (Arabidopsis thaliana, UniProt Q96323); test: Isothermal titration calorimetry; type: binding; details: ITC
T5 construct: GST; made in house
Procedure: as §2

[8] = biological target: the other four ACO proteins in Arabidopsis (AtACO1, AtACO3, AtACO4 and AtACO5); test: ACO kinetic analysis, span over the other four ACO proteins; type: biochemical, Arabidopsis thaliana; details: span over AtACO1, 3, 4, 5
Procedure: as §1

AtACO2 [9] = biological target: T1, AtACO2; test: Fragmentation (stability) of purified AtACO2; details: 200 μM POA, 30 °C
Procedure: Purified AtACO2 was incubated with or without 200 μM POA at 30 °C in a buffer containing 50 mM MOPS, pH 7.2, 10% glycerol (v/v), 5 mM ascorbic acid, 20 mM NaHCO3, 0.02 mM FeSO4, 1 mM ACC and 1 mM DTT. At the indicated time point, the reaction was terminated by the addition of SDS-PAGE loading buffer followed by boiling. Fragmentation of AtACO2 was visualized on a SDS-PAGE gel.

[10] = tested on: dioxygenase for auxin oxidation (DAO); test: Isothermal titration calorimetry; type: binding, Arabidopsis thaliana; details: ITC
Procedure: as §2

T1 sequence (Q41931 1-303): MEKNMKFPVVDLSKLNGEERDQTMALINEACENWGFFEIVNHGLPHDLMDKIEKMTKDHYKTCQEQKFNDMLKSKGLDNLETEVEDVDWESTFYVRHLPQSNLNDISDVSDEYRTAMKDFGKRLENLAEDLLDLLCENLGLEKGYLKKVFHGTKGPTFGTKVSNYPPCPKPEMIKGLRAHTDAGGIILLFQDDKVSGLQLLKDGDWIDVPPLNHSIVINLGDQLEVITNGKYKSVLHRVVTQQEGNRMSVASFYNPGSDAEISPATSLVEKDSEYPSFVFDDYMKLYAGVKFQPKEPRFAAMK
Chain of AtACO4 (Q06588 whole entry): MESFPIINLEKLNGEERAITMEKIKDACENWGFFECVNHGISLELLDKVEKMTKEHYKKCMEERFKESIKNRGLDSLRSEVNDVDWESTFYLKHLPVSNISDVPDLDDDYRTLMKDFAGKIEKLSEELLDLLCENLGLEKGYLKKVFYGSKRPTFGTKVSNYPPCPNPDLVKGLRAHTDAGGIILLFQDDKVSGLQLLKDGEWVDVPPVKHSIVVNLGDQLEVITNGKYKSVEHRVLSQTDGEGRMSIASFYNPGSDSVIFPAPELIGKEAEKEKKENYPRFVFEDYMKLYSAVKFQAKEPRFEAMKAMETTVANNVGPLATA
Chain of AtACO3 (O65378 whole entry): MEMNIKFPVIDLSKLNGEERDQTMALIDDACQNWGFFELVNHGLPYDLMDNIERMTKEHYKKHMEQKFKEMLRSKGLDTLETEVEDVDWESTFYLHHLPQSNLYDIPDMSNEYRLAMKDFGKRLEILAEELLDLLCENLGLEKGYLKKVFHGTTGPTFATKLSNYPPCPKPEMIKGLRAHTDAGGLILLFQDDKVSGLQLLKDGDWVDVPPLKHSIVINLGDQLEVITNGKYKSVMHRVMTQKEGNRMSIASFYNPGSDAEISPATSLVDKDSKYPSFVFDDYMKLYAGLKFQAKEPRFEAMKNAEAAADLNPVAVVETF
T5 sequence (Q96323 whole entry): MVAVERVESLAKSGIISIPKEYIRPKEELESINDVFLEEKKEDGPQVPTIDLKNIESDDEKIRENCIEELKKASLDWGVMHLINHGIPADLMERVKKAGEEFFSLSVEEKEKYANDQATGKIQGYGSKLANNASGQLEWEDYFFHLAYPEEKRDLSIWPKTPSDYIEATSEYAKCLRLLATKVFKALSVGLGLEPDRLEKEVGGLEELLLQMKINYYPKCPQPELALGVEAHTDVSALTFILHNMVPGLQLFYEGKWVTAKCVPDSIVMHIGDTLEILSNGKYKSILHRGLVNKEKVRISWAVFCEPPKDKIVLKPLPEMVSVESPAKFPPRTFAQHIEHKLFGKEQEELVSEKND

## CC(C)(N)C(=O)O [AIB, α-aminoisobutyric acid, reference compound]
AtACO2 [1]; 200 μM
  inhibition effect on AtACO2 compared with POA: much weaker inhibition effect than POA

## NC(=O)c1ccccn1 [2-picolinamide]
[2]
  ethylene production in Arabidopsis seedlings: remarkably inhibited
[3]
  ethylene production in suspension cultured cells: remarkably inhibited

## O=C(O)c1cnccn1 [POA, pyrazinecarboxylic acid]
[2]; 100 μM ACC, 500 μM compound, 24 h
  ACC-induced ethylene production of Col-0 seedlings: inhibited
[4]
  short-root and short-hypocotyl phenotype of eto1-2: specifically suppressed
AtACO2 [1]; Lineweaver–Burk plots, varying ACC, 100, 200 or 300 μM POA, error represents s.d., read-out: Ki, AtACO2 inhibition
  Ki: 89.8 ± 18.3 µM
AtACO2 [1]; double-reciprocal plots
  mode of inhibition of ACO: competitive inhibitor
AtACO2 [1]; recombinant AtACO2, ethylene by GC-FID, read-out: IC50, inhibition of AtACO2 activity
  IC50: 72.1 ± 1.11 µM
AtACO3
  Ki: 187 ± 54.5 µM
AtACO4
  Ki: 195 ± 73.3 µM
AtACO5
  Ki: 722 ± 536 µM
AtACO1
  Ki: 317 ± 90.4 µM
[5]
  interaction with GA2OX2: no interaction
AtACO2 [6]; in the presence of Fe2+
  Kd: 14.8 µM
AtACO2 [6]; in the presence of Zn2+
  Kd: 10.2 µM
[7]
  interaction with ANS: no interaction
[8]
  Ki: 187 to 722 µM
AtACO2 [9]
  stability of purified AtACO2 protein: did not obviously change
[10]
  interaction with DAO: no interaction

## O=C(O)c1ccccn1 [2-PA, 2-picolinic acid]
[2]
  ethylene production in Arabidopsis seedlings: remarkably inhibited
[3]
  ethylene production in suspension cultured cells: remarkably inhibited
AtACO2 [1]; 200 μM
  inhibition effect on AtACO2 compared with POA: stronger than that of POA
  relative AtACO2 activity treated with POA derivatives: directly inhibited
AtACO2 [6]; in the presence of Zn2+
  Kd: 2.8 µM
